Experimental data taken from patent publication US5837282A, “Ionophore-mediated liposome loading” (priority 1996, dated 1998).
Read-outs that look alike come from different tables or passages of the source.

Assays:
[1] = Pressman, cited from earlier work
[2] = large Mn2+ gradient still present; Erdahl et al.; cited from earlier work
[3] = Fluorimetric determination of A23187 in a liposomal formulation; format: physicochemical; settings: for Amount of A23187 measured: no removal; for remaining A23187 concentration: initial 500 ng
Description: The quantity of A23187 in SPM/Chol LUVs was determined by measuring the fluorescence intensity of the ionophore at an emission wavelength of 437 nm following solubilization of the liposomal formulation and complexation of the released divalent cations. Briefly, an aliquot of LUV/A23187 (corresponding to 5 μmol total lipid) was combined with a 333 mM EDTA solution (3 μL) and the volume was made up to 1 mL with ethanol:methanol (70:30 v:v). The sample was vortexed until clear, and the fluorescence intensity was measured. Calibration standards were prepared by the addition of known aliquots of A23187 to a 1 mL solution consisting of ethanol:methanol (70:30 v:v) and containing 5 mM total lipid.
As mentioned above, the concentration of A23187 in LUVs can be quantitated using a fluorimetric assay which allows determination of the amount remaining following various purification procedures. The results are given in Table 5 for SPM/Chol LUVs initially containing A23187 at a concentration of 0.1 μg/μmol lipid. For sample 1 (S1), 146 ng of A23187 was added to the LUVs, and 123 ng was measured by the assay.

[4] = Drug uptake/leakage after removal of nigericin (spin column, dialysis)
Description: Uptake was monitored for LUVs containing 300 mM K2 SO4 at a nigericin concentration of 1 ng/μmol lipid (.box-solid.), and for LUVs which were preincubated with nigericin for 5 min at 60° C., and then passed down a spin column prior to addition of the drug (.circle-solid.).
Thus, an aliquot of nigericin (1 ng NIG/μmol lipid) was added to a sample of SPM/Chol LUVs containing 300 mm KH2 PO4 and the temperature was increased to 60° C. for 5 min to ensure association of nigericin with the lipid. The sample was then exhaustively dialysed at room temperature against 300 mM sucrose for 20 hours, following which an aliquot was passed down a spin column prior to drug loading with VINC (FIG. 10B).
To ensure that such was not the case, control uptake experiments were performed on LUVs containing ethylammonium sulfate and amylammonium sulfate which were subjected to the same conditions.

[5] = Deamer et al.; cited from earlier work
in vivo = settings: mouse, iv; for half-life: 2 mg/kg
Description: Lipid was measured using [^14 C]cholesteryl hexadecyl ether as a tracer. The %-retention is defined as the D/L ratio at time t divided by the initial measured drug to lipid ratio.
SPM/Chol vesicles (100 nm) were used (55:45; mole %). The vesicles were prepared in a 300 mM K2 SO4 solution or 300 mM MnSO4 and the external medium was exchanged with 300 mM sucrose, 20 mM HEPES, pH 7.0 by overnight dialysis. […] Uptake of the drug was accomplished in the following manner: to an aliquot of liposomes was added either nigericin (1 ng per μmol of lipid) or A23187 (0.1 ,μg/μmol lipid) along with an appropriate amount of drug. For the A23187 experiments, EDTA was present in the external medium at 30 mM.
Each mouse was injected via a lateral tail vein with 200 μL total volume. […] At varying time points, mice were anaesthetized and blood was collected via cardiac puncture. Blood was immediately centrifuged at 500 g and plasma was collected for lipid and drug determination.
Each drug was loaded using several methods, and was injected at time 0 into mice. At the indicated times, samples were withdrawn and the D/L ratio of the recovered LUVs was determined.

[6] = Transmembrane ΔpH measured with [14C]methylamine after vincristine uptake; format: physicochemical; settings: DSPC/Chol LUVs; 300 mM K2-tartrate pH 7.4; nigericin 1 ng/μmol lipid; external HEPES-buffered sucrose pH 5.3-6.3
Description: Uptake of VINC in response to transmembrane gradients of K2 -tartrate has also been investigated in DSPC/Chol LUVs (Table 2). […] The ionophore concentration was 1 ng NIG/μmol lipid.

[7] = literature; cited from earlier work
[8] = Vincristine uptake (loading) into LUVs using A23187 / Mn2+ systems; format: physicochemical; settings: SPM/Chol LUVs, 300 mM MnSO4, 60 °C; for %-uptake / Retention: D/L 0.05, A23187 0.1 μg/μmol lipid
Description: (§1) [^14 C]CIPRO was diluted with cold CIPRO and the specific activity was determined by liquid scintillation counting and absorbance spectroscopy. […] For experiments involving [^14 C]CIPRO, the lipid mixtures were labeled using trace amounts of [^3 H]CHE. For [^3 H]VINC uptake the lipid was labeled with [^14 C]CHE. Lipid specific activities were determined by liquid scintillation counting and by quantification of phospholipid via phosphate assays.
Excellent uptake and retention of VINC can also be obtained using Mn^2+ /A23187 with SPM/Chol LUVs (see FIG. 8). Less than 5% uptake was observed when there was no EDTA present in the external medium of Hepes-buffered sucrose (pH 7.5). […] However, extremely poor uptake (40%) is observed at lower external pHs when using 300 mM sucrose 3 mM EDTA.

[9] = In vitro drug leakage from LUVs in 50% mouse serum at 37 °C; format: in vitro ADME; settings: SPM/Chol LUVs
Description: In this assay, equal volumes of the liposomal drug formulation and of mouse serum are combined in a test tube and incubated at 37° C. Leakage of the drug from the LUVs is assayed by removal of aliquots for spin column analysis.
An in vitro leakage assay has been designed which employs mouse serum to assess the relative retentive properties of the various liposomal systems. The assay is extremely simple, involving the incubation of equal volumes of mouse serum and LUV (loaded with drug) at 37° C., followed by the application of aliquots to spin columns to quantitate the change in D/L ratio with time.

[10] = Vincristine uptake (loading) into LUVs using nigericin/K+ systems; format: physicochemical; settings: 60 °C
Description: as §1
As with CIPRO, no uptake was observed prior to the addition of nigericin (arrow). […] A further improvement was obtained (93-95%) for LUVs prepared in 300 mM K2 SO4 pH 7.4 with an external pH of 6 (either 20 mM HEPES 300 mM sucrose or 20 mM MES 300 mM sucrose) (see FIG. 9B).

[11] = external 300 mM sucrose + 3 mM EDTA
[12] = SPM/Chol LUVs, 300 mM KH2PO4, D/L 0.05 wt:wt, nigericin 1 ng/μmol lipid, external 300 mM sucrose

In the case of CNc1ccc2oc(C[C@H]3O[C@@]4(CC[C@H]3C)O[C@H]([C@H](C)C(=O)c3ccc[nH]3)[C@H](C)C[C@H]4C)nc2c1C(=O)O [A23187], the relative binding affinity ([1]; Ca2+, relative to Mn2+ and Mg2+ (210:2.6:1)) is given as 2.6, the relative binding affinity ([1]; Mg2+, relative to Mn2+ and Ca2+ (210:2.6:1)) is given as 1 and the relative binding affinity ([1]; Mn2+, relative to Ca2+ and Mg2+ (210:2.6:1)) is given as 210. The “divalent cation transport specificity” value [1] was “Mn^2+ >Ca^2+ >Mg^2+”, the “fraction of entrapped Mn2+ released from POPC vesicles” value [2] was < 1/2 and the “Amount of A23187 measured” value ([3]; S1, initial amount 146 ng, SPM/Chol LUVs) was 123 ng. For the same compound, the “remaining A23187 level” value ([3]; S2, Sephadex G-50 column eluted with 300 mM sucrose, initial 109 ng) was “below background”, the “remaining A23187 concentration” value ([3]; S3, dialysis against 300 mM sucrose) was “below background levels” and the “Amount of A23187 measured” value ([3]; S4 + 45 ng A23187, initial amount 45 ng) was 41 ng. For the same compound, the “Amount of A23187 measured” value ([3]; S4 + 90 ng A23187, initial amount 90 ng) was 94 ng and the “remaining A23187 concentration” value ([3]; S4, SM-2 biobeads) was “below background levels”.
For O=C(O)c1cn(C2CC2)c2cc(N3CCNCC3)c(F)cc2c1=O [Ciprofloxacin, ciprofloxacin], the entrapment ([4]; SPM/Chol LUVs, 300 mM K2SO4, nigericin 1 ng/μmol lipid and drug added at same time, D/L 0.2, 60 °C, within 30 min) was 80% and the “in vitro leakage rates, normal versus nigericin-reduced LUVs” value ([4]; not shown) was “identical”.
For CO[C@@H]1C[C@@H](C[C@H]2CC[C@H](C)[C@H]([C@@H](C)C(=O)O)O2)O[C@]2(O[C@](C)([C@H]3CC[C@@](C)([C@@H]4O[C@@H]([C@H]5O[C@@](O)(CO)[C@H](C)C[C@@H]5C)C[C@@H]4C)O3)C[C@H]2C)[C@@H]1C [Nigericin, nigericin], the “pH gradient formed across sonicated vesicle membranes” value [5] is given as 2.2 units.
In the case of CC[C@]1(O)C[C@H]2CN(CCc3c([nH]c4ccccc34)[C@@](C(=O)OC)(c3cc4c(cc3OC)N(C=O)[C@H]3[C@@](O)(C(=O)OC)[C@H](OC(C)=O)[C@]5(CC)C=CCN6CC[C@]43[C@@H]65)C2)C1 [Vincristine, vincristine], the “factor by which drug leakage half-lives differ (citrate vs A23187)” value (in vivo) is reported as “two”, the half-life (in vivo) is reported as 6 h and the half-life (in vivo; pH 4) is reported as 8.5 h. The “in vivo retention, A23187 versus 300 mM citrate pH 4.0” value (in vivo; pH 4) was “comparable”, the “uptake after 20 h dialysis and spin column” value ([4]; SPM/Chol LUVs, 300 mM KH2PO4 (printed 300 mm), nigericin 1 ng/μmol lipid, at 1 hr) was 60% and the “ΔpH present following drug uptake” value [6] was 2.3. For the same compound, the “efficacy in liposomally-encapsulated formulations” value [7] was “equal or increased efficacy”, the “toxicity in liposomally-encapsulated formulations” value [7] was “significantly reduced toxicity” and the uptake ([8]; A23187, external Hepes-buffered sucrose pH 7.5, no EDTA) was “Less than 5%”. The “%-uptake” value [8, 11] was 40%, the Retention [8, 11] was “excellent” and the Retention ([8]; external 300 mM sucrose + 20 mM HEPES 3 mM EDTA pH 7.5) was “excellent”. For the same compound, the “%-uptake” value ([8]; external 300 mM sucrose + 20 mM HEPES 3 mM EDTA pH 7.5 (text: within one hour)) was > 95%, the “%-uptake” value ([8]; external 300 mM sucrose + 20 mM HEPES 3 mM EDTA pH 7.5 (text: within one hour), listed as VINC) was “over 95%” and the Retention ([8]; external 300 mM sucrose + 20 mM HEPES 3 mM EDTA pH 7.5, listed as VINC) was “Excellent”. The “%-uptake” value ([8]; external 300 mM sucrose, no EDTA) was 5%, the “retention in mouse serum, K+/nigericin with phosphate or tartrate salts, or sulfate salts with external pH of 6” value [9] was “better retention” and the “retention of drug in mouse serum, Mn2+/A23187 versus K+/nigericin system” value [9] was “better retention”. For the same compound, the “retention in mouse serum, Mn2+/A23187 versus LUVs loaded using methylammonium sulfate” value ([9]; results not shown) was “similar”, the Retention ([10]; DSPC/Chol LUVs, 300 mM K2-tartrate pH 7.4, D/L 0.05 wt:wt, nigericin 1 ng/μmol lipid, external 300 mM sucrose + 20 mM HEPES pH 5.3-6.3) was “excellent” and the “%-uptake” value ([10]; DSPC/Chol LUVs, 300 mM K2-tartrate pH 7.4, D/L 0.05 wt:wt, nigericin 1 ng/μmol lipid, external 300 mM sucrose + 20 mM HEPES pH 5.3-6.3 (text: within 15 min)) was 85-90%. The “%-uptake” value ([10]; SPM/Chol LUVs, 300 mM K2-tartrate pH 7.4, D/L 0.05 wt:wt, nigericin 1 ng/μmol lipid, external 300 mM sucrose + 20 mM MES pH 6.0) was 70%, the “%-uptake” value ([10]; SPM/Chol LUVs, 300 mM K2HPO4, D/L 0.05 wt:wt, nigericin 1 ng/μmol lipid, external 300 mM sucrose) was < 5% and the “uptake prior to the addition of nigericin” value ([10]; SPM/Chol LUVs, 300 mM K2SO4) was “no uptake”. The Retention ([10]; SPM/Chol LUVs, 300 mM K2SO4, external 300 mM sucrose) was “excellent retention”, the Retention ([10]; SPM/Chol LUVs, 300 mM K2SO4, external HEPES-buffered sucrose pH 7.5, over 75 minutes) was “poor retention” and the encapsulation ([10]; SPM/Chol LUVs, 300 mM K2SO4, nigericin 1 ng/μmol lipid, external 300 mM sucrose) was ~90%. The uptake ([10]; SPM/Chol LUVs, 300 mM K2SO4, nigericin 1 ng/μmol lipid, external HEPES-buffered sucrose pH 7.5) was 60%, the “%-uptake” value ([10]; SPM/Chol LUVs, 300 mM K2SO4 pH 7.4, D/L 0.05 wt:wt, nigericin 1 ng/μmol lipid, external 300 mM sucrose + 20 mM HEPES or MES pH 6.0) was 92% and the “%-uptake” value ([10]; SPM/Chol LUVs, 300 mM K2SO4 pH 7.4, D/L 0.05 wt:wt, nigericin 1 ng/μmol lipid, external 300 mM sucrose + 20 mM HEPES or MES pH 6.0, listed as VINC) was 93-95%. The “%-uptake” value [10, 12] was 80% and the Retention [10, 12] was “excellent”.
For COc1cccc2c1C(=O)c1c(O)c3c(c(O)c1C2=O)C[C@@](O)(C(=O)CO)C[C@@H]3O[C@H]1C[C@H](N)[C@H](O)[C@H](C)O1 [doxorubicin], the “effect of encapsulation on drug toxicity (particularly acute cardiotoxicity)” value [7] is given as “can decrease drug toxicity”, the “efficacy in liposomally-encapsulated formulations” value [7] is given as “equal or increased efficacy” and the “toxicity in liposomally-encapsulated formulations” value [7] is given as “significantly reduced toxicity”.
In the case of amylammonium sulfate, the “encapsulation in control LUVs containing amine salt subjected to the same dialysis” value ([4]; control LUVs, same dialysis conditions) is reported as 80-95%.
